In PMC4368189, “YCZ-18 Is a New Brassinosteroid Biosynthesis Inhibitor” (PLoS ONE, 2015) one finds Kd data, which are given here for 1 molecule.

In general, Kd refers to a measure of binding affinity in units of concentration.

In the test the target is T1, CYP90D1 (Arabidopsis thaliana, UniProt Q94IA6).
T1 construct: CYP90D1 mature protein, expressed in E. coli from pCold-GST; fusion cleaved with HRV3C protease
T1 sequence (Q94IA6 1-491): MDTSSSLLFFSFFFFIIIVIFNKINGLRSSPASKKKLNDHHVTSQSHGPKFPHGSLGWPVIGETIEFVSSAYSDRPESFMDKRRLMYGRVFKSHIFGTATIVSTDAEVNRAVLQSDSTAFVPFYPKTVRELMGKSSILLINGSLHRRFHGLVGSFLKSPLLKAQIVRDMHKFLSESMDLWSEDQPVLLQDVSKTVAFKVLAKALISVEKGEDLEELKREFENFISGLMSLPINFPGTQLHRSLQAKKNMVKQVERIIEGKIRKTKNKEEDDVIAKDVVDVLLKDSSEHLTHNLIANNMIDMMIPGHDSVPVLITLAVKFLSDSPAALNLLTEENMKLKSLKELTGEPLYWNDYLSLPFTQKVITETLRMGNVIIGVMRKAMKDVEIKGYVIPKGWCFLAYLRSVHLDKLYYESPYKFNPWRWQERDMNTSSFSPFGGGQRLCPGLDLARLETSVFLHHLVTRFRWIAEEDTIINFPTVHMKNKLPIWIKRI
In words: optical difference spectroscopy (type II binding spectrum) titration of purified recombinant CYP90D1.

`CCOc1ccccc1OCC1COC(Cn2cncn2)(c2ccc(Cl)cc2)O1` (stereo not shown) [YCZ-18]: the Kd was around 790 nM.
